Assays:
[1] = tested on: Anopheles funestus metabolic-resistant strain FUMOZ-R; experiment: Metabolic-resistant Anopheles test: treated glazed tile, knock-down; format: in vivo
Experimental: (§1) The exposition time is 30 minutes.
(§2) 0.25 hours, 0.5 hours, 1 hour, 2 hour, 3 hour, 4 hour and 24 hours after contact to the treated surface, the knock-down proportion of the test animals in % is determined. Here, 100% means that all mosquitoes have been killed; 0% means that none of the mosquitoes has been killed.

mosquitoes = conditions: alone, stated as known, cited from earlier work
Aedes aegypti = experiment: Aedes test: contact on treated glazed tile, knock-down; format: in vivo
Experimental: To produce a suitable preparation of active compound combination the active compounds bendiocarb and clothianidin were dissolved in acetone (for the control group only one active compound was dissolved in acetone). The active compound combination preparation (and the active compound preparations) were pipetted onto a glazed tile and, after drying, adult mosquitoes of the species Aedes aegypti are placed onto the treated tile. The exposition time is 30 minutes.
as §2

[2] = tested on: Anopheles gambiae (target-site-resistant and metabolic-resistant strain: RSPH); experiment: Target-site-resistant and metabolic-resistant Anopheles test: treated glazed tile, knock-down; format: in vivo
Experimental: as §1, §2

[3] = Bendiocarb 0.032 mg/m^2 alone, 0.25 h after contact
[4] = Bendiocarb 0.032 mg/m^2 alone, 0.5 h after contact
[5] = Bendiocarb 0.032 mg/m^2 alone, 1 h after contact
[6] = Bendiocarb 0.032 mg/m^2 alone, 2 h after contact
[7] = Bendiocarb 0.032 mg/m^2 alone, 3 h after contact
[8] = Bendiocarb 0.032 mg/m^2 alone, 4 h after contact
[9] = Bendiocarb 0.032 mg/m^2 alone, 24 h after contact
[10] = Bendiocarb 0.16 mg/m^2 alone, 0.25 h after contact
[11] = Bendiocarb 0.16 mg/m^2 alone, 0.5 h after contact
[12] = Bendiocarb 0.16 mg/m^2 alone, 1 h after contact
[13] = Bendiocarb 0.16 mg/m^2 alone, 2 h after contact
[14] = Bendiocarb 0.16 mg/m^2 alone, 3 h after contact
[15] = Bendiocarb 0.16 mg/m^2 alone, 4 h after contact
[16] = Bendiocarb 0.16 mg/m^2 alone, 24 h after contact
[17] = Dinotefuran 0.8 mg/m^2 alone, 0.25 h after contact
[18] = Dinotefuran 0.8 mg/m^2 alone, 0.5 h after contact
[19] = Dinotefuran 0.8 mg/m^2 alone, 1 h after contact
[20] = Dinotefuran 0.8 mg/m^2 alone, 2 h after contact
[21] = Dinotefuran 0.8 mg/m^2 alone, 3 h after contact
[22] = Dinotefuran 0.8 mg/m^2 alone, 4 h after contact
[23] = Dinotefuran 0.8 mg/m^2 alone, 24 h after contact
[24] = Dinotefuran 4 mg/m^2 alone, 0.25 h after contact
[25] = Dinotefuran 4 mg/m^2 alone, 0.5 h after contact
[26] = Dinotefuran 4 mg/m^2 alone, 1 h after contact
[27] = Dinotefuran 4 mg/m^2 alone, 2 h after contact
[28] = Dinotefuran 4 mg/m^2 alone, 3 h after contact
[29] = Dinotefuran 4 mg/m^2 alone, 4 h after contact
[30] = Dinotefuran 4 mg/m^2 alone, 24 h after contact
[31] = Clothianidin 5 mg/m^2 alone, 0.25 h after contact
[32] = Clothianidin 5 mg/m^2 alone, 0.5 h after contact
[33] = Clothianidin 5 mg/m^2 alone, 1 h after contact
[34] = Clothianidin 5 mg/m^2 alone, 2 h after contact
[35] = Clothianidin 5 mg/m^2 alone, 3 h after contact
[36] = Clothianidin 5 mg/m^2 alone, 4 h after contact
[37] = Clothianidin 5 mg/m^2 alone, 24 h after contact
[38] = Clothianidin 20 mg/m^2 alone, 0.25 h after contact
[39] = Clothianidin 20 mg/m^2 alone, 0.5 h after contact
[40] = Clothianidin 20 mg/m^2 alone, 1 h after contact
[41] = Clothianidin 20 mg/m^2 alone, 2 h after contact
[42] = Clothianidin 20 mg/m^2 alone, 3 h after contact
[43] = Clothianidin 20 mg/m^2 alone, 4 h after contact
[44] = Clothianidin 20 mg/m^2 alone, 24 h after contact

## CNC(=O)Oc1cccc2c1OC(C)(C)O2 [Bendiocarb, bendiocarb]
[1]; [3]
  Effect % (knock-down): 0%
[1]; [4]
  Effect % (knock-down): 5%
[1]; [5]
  Effect % (knock-down): 5%
[1]; [6]
  Effect % (knock-down): 5%
[1]; [7]
  Effect % (knock-down): 10%
[1]; [8]
  Effect % (knock-down): 10%
[1]; [9]
  Effect % (knock-down): 40%
[1]; [10]
  Effect % (knock-down): 0%
[1]; [11]
  Effect % (knock-down): 80%
[1]; [12]
  Effect % (knock-down): 80%
[1]; [13]
  Effect % (knock-down): 45%
[1]; [14]
  Effect % (knock-down): 50%
[1]; [15]
  Effect % (knock-down): 20%
[1]; [16]
  Effect % (knock-down): 90%
[1]; Bendiocarb 0.8 mg/m^2 alone, 0.25 h after contact
  Effect % (knock-down): 100%
[1]; Bendiocarb 0.8 mg/m^2 alone, 0.5 h after contact
  Effect % (knock-down): 100%
[1]; Bendiocarb 0.8 mg/m^2 alone, 1 h after contact
  Effect % (knock-down): 100%
[1]; Bendiocarb 0.8 mg/m^2 alone, 2 h after contact
  Effect % (knock-down): 100%
[1]; Bendiocarb 0.8 mg/m^2 alone, 3 h after contact
  Effect % (knock-down): 100%
[1]; Bendiocarb 0.8 mg/m^2 alone, 4 h after contact
  Effect % (knock-down): 95%
[1]; Bendiocarb 0.8 mg/m^2 alone, 24 h after contact
  Effect % (knock-down): 100%
mosquitoes; on concrete (alkaline)
  efficiency on concrete: not efficient
Aedes aegypti; [3]
  Effect % (knock-down): 0%
Aedes aegypti; [4]
  Effect % (knock-down): 0%
Aedes aegypti; [5]
  Effect % (knock-down): 0%
Aedes aegypti; [6]
  Effect % (knock-down): 0%
Aedes aegypti; [7]
  Effect % (knock-down): 0%
Aedes aegypti; [8]
  Effect % (knock-down): 5%
Aedes aegypti; [9]
  Effect % (knock-down): 0%
Aedes aegypti; [10]
  Effect % (knock-down): 0%
Aedes aegypti; [11]
  Effect % (knock-down): 5%
Aedes aegypti; [12]
  Effect % (knock-down): 5%
Aedes aegypti; [13]
  Effect % (knock-down): 5%
Aedes aegypti; [14]
  Effect % (knock-down): 10%
Aedes aegypti; [15]
  Effect % (knock-down): 10%
Aedes aegypti; [16]
  Effect % (knock-down): 5%
[2]; Bendiocarb 0.032 mg/m^2 alone (Table 2), 0.25 h after contact
  Effect % (knock-down): 5%
[2]; Bendiocarb 0.032 mg/m^2 alone (Table 2), 0.5 h after contact
  Effect % (knock-down): 5%
[2]; Bendiocarb 0.032 mg/m^2 alone (Table 2), 1 h after contact
  Effect % (knock-down): 15%
[2]; Bendiocarb 0.032 mg/m^2 alone (Table 2), 2 h after contact
  Effect % (knock-down): 10%
[2]; Bendiocarb 0.032 mg/m^2 alone (Table 2), 3 h after contact
  Effect % (knock-down): 10%
[2]; Bendiocarb 0.032 mg/m^2 alone (Table 2), 4 h after contact
  Effect % (knock-down): 15%
[2]; Bendiocarb 0.032 mg/m^2 alone (Table 2), 24 h after contact
  Effect % (knock-down): 35%
[2]; Bendiocarb 0.032 mg/m^2 alone (Table 3), 0.25 h after contact
  Effect % (knock-down): 10%
[2]; Bendiocarb 0.032 mg/m^2 alone (Table 3), 0.5 h after contact
  Effect % (knock-down): 25%
[2]; Bendiocarb 0.032 mg/m^2 alone (Table 3), 1 h after contact
  Effect % (knock-down): 25%
[2]; Bendiocarb 0.032 mg/m^2 alone (Table 3), 2 h after contact
  Effect % (knock-down): 25%
[2]; Bendiocarb 0.032 mg/m^2 alone (Table 3), 3 h after contact
  Effect % (knock-down): 35%
[2]; Bendiocarb 0.032 mg/m^2 alone (Table 3), 4 h after contact
  Effect % (knock-down): 35%
[2]; Bendiocarb 0.032 mg/m^2 alone (Table 3), 24 h after contact
  Effect % (knock-down): 80%
[2]; Bendiocarb 0.16 mg/m^2 alone (Table 2), 0.25 h after contact
  Effect % (knock-down): 5%
[2]; Bendiocarb 0.16 mg/m^2 alone (Table 2), 0.5 h after contact
  Effect % (knock-down): 90%
[2]; Bendiocarb 0.16 mg/m^2 alone (Table 2), 1 h after contact
  Effect % (knock-down): 95%
[2]; Bendiocarb 0.16 mg/m^2 alone (Table 2), 2 h after contact
  Effect % (knock-down): 100%
[2]; Bendiocarb 0.16 mg/m^2 alone (Table 2), 3 h after contact
  Effect % (knock-down): 100%
[2]; Bendiocarb 0.16 mg/m^2 alone (Table 2), 4 h after contact
  Effect % (knock-down): 90%
[2]; Bendiocarb 0.16 mg/m^2 alone (Table 2), 24 h after contact
  Effect % (knock-down): 90%
[2]; Bendiocarb 0.16 mg/m^2 alone (Table 3), 0.25 h after contact
  Effect % (knock-down): 15%
[2]; Bendiocarb 0.16 mg/m^2 alone (Table 3), 0.5 h after contact
  Effect % (knock-down): 100%
[2]; Bendiocarb 0.16 mg/m^2 alone (Table 3), 1 h after contact
  Effect % (knock-down): 100%
[2]; Bendiocarb 0.16 mg/m^2 alone (Table 3), 2 h after contact
  Effect % (knock-down): 100%
[2]; Bendiocarb 0.16 mg/m^2 alone (Table 3), 3 h after contact
  Effect % (knock-down): 100%
[2]; Bendiocarb 0.16 mg/m^2 alone (Table 3), 4 h after contact
  Effect % (knock-down): 100%
[2]; Bendiocarb 0.16 mg/m^2 alone (Table 3), 24 h after contact
  Effect % (knock-down): 100%
[2]; Bendiocarb 0.8 mg/m^2 alone (Table 2), 0.25 h after contact
  Effect % (knock-down): 95%
[2]; Bendiocarb 0.8 mg/m^2 alone (Table 2), 0.5 h after contact
  Effect % (knock-down): 100%
[2]; Bendiocarb 0.8 mg/m^2 alone (Table 2), 1 h after contact
  Effect % (knock-down): 100%
[2]; Bendiocarb 0.8 mg/m^2 alone (Table 2), 2 h after contact
  Effect % (knock-down): 100%
[2]; Bendiocarb 0.8 mg/m^2 alone (Table 2), 3 h after contact
  Effect % (knock-down): 100%
[2]; Bendiocarb 0.8 mg/m^2 alone (Table 2), 4 h after contact
  Effect % (knock-down): 100%
[2]; Bendiocarb 0.8 mg/m^2 alone (Table 2), 24 h after contact
  Effect % (knock-down): 100%

## CN/C(=N/CC1CCOC1)N[N+](=O)[O-] (stereo not drawn) [Dinotefuran, dinotefuran]
[1]; [17]
  Effect % (knock-down): 0%
[1]; [18]
  Effect % (knock-down): 0%
[1]; [19]
  Effect % (knock-down): 5%
[1]; [20]
  Effect % (knock-down): 0%
[1]; [21]
  Effect % (knock-down): 10%
[1]; [22]
  Effect % (knock-down): 15%
[1]; [23]
  Effect % (knock-down): 35%
[1]; [24]
  Effect % (knock-down): 15%
[1]; [25]
  Effect % (knock-down): 10%
[1]; [26]
  Effect % (knock-down): 10%
[1]; [27]
  Effect % (knock-down): 15%
[1]; [28]
  Effect % (knock-down): 30%
[1]; [29]
  Effect % (knock-down): 40%
[1]; [30]
  Effect % (knock-down): 55%
[2]; [17]
  Effect % (knock-down): 10%
[2]; [18]
  Effect % (knock-down): 5%
[2]; [19]
  Effect % (knock-down): 5%
[2]; [20]
  Effect % (knock-down): 10%
[2]; [21]
  Effect % (knock-down): 20%
[2]; [22]
  Effect % (knock-down): 30%
[2]; [23]
  Effect % (knock-down): 35%
[2]; [24]
  Effect % (knock-down): 15%
[2]; [25]
  Effect % (knock-down): 5%
[2]; [26]
  Effect % (knock-down): 15%
[2]; [27]
  Effect % (knock-down): 40%
[2]; [28]
  Effect % (knock-down): 35%
[2]; [29]
  Effect % (knock-down): 65%
[2]; [30]
  Effect % (knock-down): 65%

## CN/C(=N\[N+](=O)[O-])NCc1cnc(Cl)s1 [Clothianidin, clothianidin]
mosquitoes; on wood
  efficiency on wood: not efficient
Aedes aegypti; [31]
  Effect % (knock-down): 5%
Aedes aegypti; [32]
  Effect % (knock-down): 5%
Aedes aegypti; [33]
  Effect % (knock-down): 5%
Aedes aegypti; [34]
  Effect % (knock-down): 5%
Aedes aegypti; [35]
  Effect % (knock-down): 5%
Aedes aegypti; [36]
  Effect % (knock-down): 10%
Aedes aegypti; [37]
  Effect % (knock-down): 15%
Aedes aegypti; [38]
  Effect % (knock-down): 0%
Aedes aegypti; [39]
  Effect % (knock-down): 15%
Aedes aegypti; [40]
  Effect % (knock-down): 20%
Aedes aegypti; [41]
  Effect % (knock-down): 15%
Aedes aegypti; [42]
  Effect % (knock-down): 10%
Aedes aegypti; [43]
  Effect % (knock-down): 10%
Aedes aegypti; [44]
  Effect % (knock-down): 30%
[2]; [31]
  Effect % (knock-down): 15%
[2]; [32]
  Effect % (knock-down): 25%
[2]; [33]
  Effect % (knock-down): 35%
[2]; [34]
  Effect % (knock-down): 35%
[2]; [35]
  Effect % (knock-down): 45%
[2]; [36]
  Effect % (knock-down): 50%
[2]; [37]
  Effect % (knock-down): 65%
[2]; [38]
  Effect % (knock-down): 30%
[2]; [39]
  Effect % (knock-down): 35%
[2]; [40]
  Effect % (knock-down): 40%
[2]; [41]
  Effect % (knock-down): 45%
[2]; [42]
  Effect % (knock-down): 50%
[2]; [43]
  Effect % (knock-down): 55%
[2]; [44]
  Effect % (knock-down): 65%
[2]; Clothianidin 50 mg/m^2 alone, 0.25 h after contact
  Effect % (knock-down): 10%
[2]; Clothianidin 50 mg/m^2 alone, 0.5 h after contact
  Effect % (knock-down): 35%
[2]; Clothianidin 50 mg/m^2 alone, 1 h after contact
  Effect % (knock-down): 65%
[2]; Clothianidin 50 mg/m^2 alone, 2 h after contact
  Effect % (knock-down): 65%
[2]; Clothianidin 50 mg/m^2 alone, 3 h after contact
  Effect % (knock-down): 60%
[2]; Clothianidin 50 mg/m^2 alone, 4 h after contact
  Effect % (knock-down): 65%
[2]; Clothianidin 50 mg/m^2 alone, 24 h after contact
  Effect % (knock-down): 95%

From patent publication US20150025118A1, “ACTIVE COMPOUND COMPOSITIONS FOR VECTOR CONTROL OF INSECTICIDE-RESISTANT PESTS” (priority 2012, published 2015)
